Source: patent publication US5892026A, “High Trehalose content syrup” (Kabushiki Kaisha Hayashibara Seibutsu Kagaku Kenkyujo, priority 1995, dated 1999)
Values after ≈ are worked out from the molar mass of the structure shown. Like-named read-outs stand apart in the source and are kept apart here.

Assay: Water solubility of trehalose at ambient temperature (Experiment 1)
Assay type: physicochemical
Conditions: for solubility thermodynamic at 24 h: water
Method: The water solubility of trehalose at ambient temperature was studied by placing into a glass beaker 10 parts by weight of water and 20 parts by weight of hydrous crystalline trehalose, incubating the mixture under stirring conditions at 10°, 15°, 20°, 25°, 30° or 40° C. for 24 hours in an incubator, filtering the resulting mixture, measuring the trehalose concentration of the filtrate, and determining the water solubility of trehalose in an anhydrous form in 100 g water at each temperature.

solubility thermodynamic at 24 h (10 °C, anhydrous form, read-out: trehalose content (g) dissolved in 100 g water): 553 mg/mL (≈ 1620 mM)
solubility thermodynamic at 24 h (15 °C, anhydrous form, read-out: trehalose content (g) dissolved in 100 g water): 618 mg/mL (≈ 1810 mM)
solubility thermodynamic at 24 h (20 °C, anhydrous form, read-out: trehalose content (g) dissolved in 100 g water): 689 mg/mL (≈ 2010 mM)
solubility thermodynamic at 24 h (25 °C, anhydrous form, read-out: trehalose content (g) dissolved in 100 g water): 773 mg/mL (≈ 2260 mM)
solubility thermodynamic at 24 h (30 °C, anhydrous form, read-out: trehalose content (g) dissolved in 100 g water): 866 mg/mL (≈ 2530 mM)
solubility thermodynamic at 24 h (40 °C, anhydrous form, read-out: trehalose content (g) dissolved in 100 g water): 1090 mg/mL (≈ 3190 mM)
solubility thermodynamic at 24 h (saturated in water, 10 °C, read-out: trehalose concentration (w/w %)): 356 mg/mL (≈ 1040 mM)
solubility thermodynamic at 24 h (saturated in water, 15 °C, read-out: trehalose concentration (w/w %)): 382 mg/mL (≈ 1120 mM)
solubility thermodynamic at 24 h (saturated in water, 20 °C, read-out: trehalose concentration (w/w %)): 408 mg/mL (≈ 1190 mM)
solubility thermodynamic at 24 h (saturated in water, 25 °C, read-out: trehalose concentration (w/w %)): 436 mg/mL (≈ 1270 mM)
solubility thermodynamic at 24 h (saturated in water, 30 °C, read-out: trehalose concentration (w/w %)): 464 mg/mL (≈ 1360 mM)
solubility thermodynamic at 24 h (saturated in water, 40 °C, read-out: trehalose concentration (w/w %)): 522 mg/mL (≈ 1520 mM)
Structure (SMILES): OC[C@H]1O[C@H](O[C@H]2O[C@H](CO)[C@@H](O)[C@H](O)[C@H]2O)[C@H](O)[C@@H](O)[C@@H]1O [Trehalose, α,α-trehalose]
water solubility / crystallization of trehalose (in words) (ambient temperature): dissolves in water in a relatively low concentration and readily crystallizes at ambient temperature
